Assays:
Assay in all cases: relative viability (nuclei count vs DMSO), 5 days (fraction); higher = more cells survive
[1] = tested on: NCI-H322M
Outline: (§1)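 After 5 days of treatment, lung cancer cells in 1536-well plates were fixed and stained in a single step (final 0.05% Triton X-100, 1% formaldehyde, 1 ug/ml Hoechst) and their nuclei counted on 4× images. Treatment had been applied by pin tool the day after seeding as one drug alone or as a fixed anchor-drug dose with five library-drug doses (not always all listed) in √10 steps. Relative viability is the nuclei count of treated wells divided by that of vehicle wells, and values are medians of duplicate plates.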

[2] = tested on: NCI-H1703
Outline: as §1

[3] = tested on: NCI-H647
Outline: as §1

[4] = tested on: NCI-H2087
Outline: as §1

[5] = tested on: PC-14
Outline: as §1

[6] = tested on: COR-L23
Outline: as §1

[7] = tested on: LCLC-97TM1
Outline: as §1

[8] = tested on: NCI-H460
Outline: as §1

[9] = tested on: A-427
Outline: as §1

[10] = tested on: NCI-H3122
Outline: as §1

[11] = tested on: NCI-H2085
Outline: as §1

[12] = tested on: NCI-H1437
Outline: as §1

[13] = tested on: NCI-H1666
Outline: as §1

[14] = tested on: NCI-H661
Outline: as §1

[15] = tested on: NCI-H1563
Outline: as §1

[16] = tested on: NCI-H1915
Outline: as §1

[17] = tested on: EKVX
Outline: as §1

[18] = tested on: A549
Outline: as §1

[19] = tested on: NCI-H2126
Outline: as §1

[20] = tested on: ABC-1
Outline: as §1

[21] = tested on: NCI-H727
Outline: as §1

[22] = tested on: LK-2
Outline: as §1

[23] = tested on: LXF-289
Outline: as §1

[24] = tested on: LC-2-ad
Outline: as §1

[25] = tested on: NCI-H1792
Outline: as §1

In the case of `Cc1cn(-c2cc(NC(=O)c3ccc(C)c(Nc4nccc(-c5cccnc5)n4)c3)cc(C(F)(F)F)c2)cn1` [Nilotinib] + CS(=O)(=O)CCNCc1ccc(-c2ccc3ncnc(Nc4ccc(OCc5cccc(F)c5)c(Cl)c4)c3c2)o1 [Lapatinib] (partner 2 µM), the relative viability ([1]; first compound 0.001 µM) is reported as 0.557, the relative viability ([1]; first compound 0.003162 µM) is reported as 0.515 and the relative viability ([1]; first compound 0.03162 µM) is reported as 0.596. It also gave a relative viability ([1]; first compound 0.1 µM) of 0.649, a relative viability ([2]; first compound 0.003162 µM) of 0.738 and a relative viability ([2]; first compound 0.01 µM) of 0.567. It also gave a relative viability ([2]; first compound 0.03162 µM) of 0.208, a relative viability ([2]; first compound 0.1 µM) of 0.227 and a relative viability ([3]; first compound 0.001 µM) of 0.978. It also gave a relative viability ([3]; first compound 0.003162 µM) of 1.42, a relative viability ([3]; first compound 0.03162 µM) of 0.672 and a relative viability ([3]; first compound 0.1 µM) of 0.723. It also gave a relative viability ([4]; first compound 0.001 µM) of 0.62, a relative viability ([4]; first compound 0.003162 µM) of 1.21 and a relative viability ([4]; first compound 0.01 µM) of 1.17. For the same compound, the relative viability ([4]; first compound 0.03162 µM) was 0.686, the relative viability ([4]; first compound 0.1 µM) was 0.289 and the relative viability ([5]; first compound 0.001 µM) was 0.328. For the same compound, the relative viability ([5]; first compound 0.003162 µM) was 0.422, the relative viability ([5]; first compound 0.01 µM) was 0.367 and the relative viability ([5]; first compound 0.03162 µM) was 0.318. It also gave a relative viability ([5]; first compound 0.1 µM) of 0.277, a relative viability ([6]; first compound 0.001 µM) of 0.834 and a relative viability ([6]; first compound 0.003162 µM) of 1.53. For the same compound, the relative viability ([6]; first compound 0.01 µM) was 1.7, the relative viability ([6]; first compound 0.03162 µM) was 0.822 and the relative viability ([6]; first compound 0.1 µM) was 0.825. For the same compound, the relative viability ([7]; first compound 0.001 µM) was 0.777, the relative viability ([7]; first compound 0.003162 µM) was 1.05 and the relative viability ([7]; first compound 0.01 µM) was 1.12. It also gave a relative viability ([7]; first compound 0.03162 µM) of 1.16, a relative viability ([7]; first compound 0.1 µM) of 0.268 and a relative viability ([8]; first compound 0.001 µM) of 0.521. For the same compound, the relative viability ([8]; first compound 0.03162 µM) was 0.378, the relative viability ([8]; first compound 0.1 µM) was 0.0571 and the relative viability ([9]; first compound 0.001 µM) was 1.05. The relative viability ([9]; first compound 0.01 µM) was 1.13, the relative viability ([9]; first compound 0.03162 µM) was 1.08 and the relative viability ([9]; first compound 0.1 µM) was 0.211. It also gave a relative viability ([10]; first compound 0.001 µM) of 0.988, a relative viability ([10]; first compound 0.003162 µM) of 1.07 and a relative viability ([10]; first compound 0.01 µM) of 0.991. For the same compound, the relative viability ([10]; first compound 0.03162 µM) was 1.01, the relative viability ([10]; first compound 0.1 µM) was 0.98 and the relative viability ([11]; first compound 0.001 µM) was 0.822. It also gave a relative viability ([11]; first compound 0.003162 µM) of 0.817, a relative viability ([11]; first compound 0.01 µM) of 0.748 and a relative viability ([11]; first compound 0.03162 µM) of 0.66. It also gave a relative viability ([11]; first compound 0.1 µM) of 0.599, a relative viability ([12]; first compound 0.001 µM) of 0.687 and a relative viability ([12]; first compound 0.003162 µM) of 0.973. It also gave a relative viability ([12]; first compound 0.01 µM) of 0.858, a relative viability ([12]; first compound 0.03162 µM) of 0.614 and a relative viability ([12]; first compound 0.1 µM) of 0.203. For the same compound, the relative viability ([13]; first compound 0.001 µM) was 0.772, the relative viability ([13]; first compound 0.003162 µM) was 0.901 and the relative viability ([13]; first compound 0.01 µM) was 0.461. It also gave a relative viability ([13]; first compound 0.03162 µM) of 0.655, a relative viability ([13]; first compound 0.1 µM) of 0.641 and a relative viability ([14]; first compound 0.001 µM) of 0.446. For the same compound, the relative viability ([14]; first compound 0.003162 µM) was 0.445, the relative viability ([14]; first compound 0.01 µM) was 0.549 and the relative viability ([14]; first compound 0.03162 µM) was 0.42. For the same compound, the relative viability ([14]; first compound 0.1 µM) was 0.436, the relative viability ([15]; first compound 0.001 µM) was 0.961 and the relative viability ([15]; first compound 0.003162 µM) was 0.916. The relative viability ([15]; first compound 0.01 µM) was 0.874, the relative viability ([15]; first compound 0.03162 µM) was 0.873 and the relative viability ([15]; first compound 0.1 µM) was 0.596. The relative viability ([16]; first compound 0.001 µM) was 0.986, the relative viability ([16]; first compound 0.003162 µM) was 1.13 and the relative viability ([16]; first compound 0.01 µM) was 1.22. The relative viability ([16]; first compound 0.03162 µM) was 0.98, the relative viability ([16]; first compound 0.1 µM) was 0.517 and the relative viability ([17]; first compound 0.001 µM) was 0.211. For the same compound, the relative viability ([17]; first compound 0.003162 µM) was 0.195, the relative viability ([17]; first compound 0.01 µM) was 0.214 and the relative viability ([17]; first compound 0.03162 µM) was 0.187. It also gave a relative viability ([17]; first compound 0.1 µM) of 0.204, a relative viability ([18]; first compound 0.001 µM) of 1.01 and a relative viability ([18]; first compound 0.003162 µM) of 1.07. For the same compound, the relative viability ([18]; first compound 0.01 µM) was 1.09, the relative viability ([18]; first compound 0.03162 µM) was 0.881 and the relative viability ([18]; first compound 0.1 µM) was 0.672. The relative viability ([19]; first compound 0.001 µM) was 0.729, the relative viability ([19]; first compound 0.003162 µM) was 0.813 and the relative viability ([19]; first compound 0.01 µM) was 0.664. The relative viability ([19]; first compound 0.03162 µM) was 0.858, the relative viability ([19]; first compound 0.1 µM) was 0.507 and the relative viability ([20]; first compound 0.001 µM) was 0.925. For the same compound, the relative viability ([20]; first compound 0.003162 µM) was 1.09, the relative viability ([20]; first compound 0.01 µM) was 1.35 and the relative viability ([20]; first compound 0.03162 µM) was 0.955. It also gave a relative viability ([20]; first compound 0.1 µM) of 0.952, a relative viability ([21]; first compound 0.001 µM) of 0.858 and a relative viability ([21]; first compound 0.01 µM) of 0.985. It also gave a relative viability ([21]; first compound 0.03162 µM) of 0.591, a relative viability ([21]; first compound 0.1 µM) of 0.368 and a relative viability ([22]; first compound 0.001 µM) of 0.854. The relative viability ([22]; first compound 0.003162 µM) was 0.754, the relative viability ([22]; first compound 0.01 µM) was 1.05 and the relative viability ([22]; first compound 0.03162 µM) was 0.875. It also gave a relative viability ([22]; first compound 0.1 µM) of 0.822, a relative viability ([23]; first compound 0.001 µM) of 0.839 and a relative viability ([23]; first compound 0.003162 µM) of 1.05. The relative viability ([23]; first compound 0.01 µM) was 0.927, the relative viability ([23]; first compound 0.03162 µM) was 0.941 and the relative viability ([23]; first compound 0.1 µM) was 0.63. The relative viability ([24]; first compound 0.001 µM) was 0.901, the relative viability ([24]; first compound 0.003162 µM) was 1.29 and the relative viability ([24]; first compound 0.01 µM) was 1.05. The relative viability ([24]; first compound 0.03162 µM) was 0.894, the relative viability ([24]; first compound 0.1 µM) was 0.293 and the relative viability ([25]; first compound 0.001 µM) was 0.899. For the same compound, the relative viability ([25]; first compound 0.01 µM) was 1.12 and the relative viability ([25]; first compound 0.1 µM) was 1.24.
